The values that follow come from patent US10385372B2, “Methods for thaxtomin production and modified streptomyces with increased thaxtomin production” (priority 2014, dated 2019).

Structures are written as SMILES.

Assay [1] deals with S. scabies CebR regulator (CebR-His6). Nature of the assay: Electromobility gel shift assay (EMSA) with CebR-His6 pre-incubated with cellobiose and cellooligosaccharides. Conditions: EMSA of FIG. 4; for impairment of the CebR DNA-binding ability (quantification of shifted bands): CebR-His6 pre-incubated with oligosaccharide, Cy5-labelled cbs probes 6 nM. It counts as binding, Streptomyces scabies. Here is the method:
Numbers 1 and 2 refer to EMSAs with free probes (6 nM) and with probes incubated with CebR-His6, respectively. Numbers 3 to 7 refer to EMSAs with CebR-His6 pre-incubated with oligosaccharides, i.e. cellobiose (3), cellotriose (4), cellotetraose (5), cellopentaose (6), and cellohexaose (7). Note that cellobiose (3) is the best oligosaccharide for preventing CebR interaction with all CebR-binding sites.
Electromobility gel shift assays (EMSAs) were performed in order to assess binding of the S. scabies CebR regulator (CebR^sca) to the in silico predicted cbs. The scab57761 gene was cloned into pET-22b and overexpressed in Escherichia coli Rosetta (DE3) cells. The resulting recombinant His-tagged CebR (CebR-His6) was purified from the IPTG-induced E. coli cytoplasmic extracts by Nickel-NTA affinity column. […] Under the same conditions, strong CebR-binding to cbs^cebE-R and cbs^bglC, which were used as positive controls of genes known to be directly controlled by CebR (Schlösser 2000; Marushima 2009), was observed (FIG. 3).
Experimental in vitro validations of predicted cis-acting elements allowed proposing a signaling pathway from cellobiose sensing and transport to thaxtomin biosynthesis (FIG. 5). […] Once inside the cell, cellobiose (and to a lesser extent cellotriose) prevents CebR-binding to cbs^txtR-A and cbs^txtB allowing expression of txtA, txtB and txtR. Consequently, TxtR complexed to cellobiose would be able to increase the expression levels of txtA and txtB, the thaxtomin biosynthetic genes.
EMSAs with 34-bp double-stranded probes (generated by PCR, Table 2) were performed using Cy5-labeled cbs probes (6 nM and 30 nM final concentration) and His6-tagged CebR at a final concentration between 0.08 and 3.2 μM in a total reaction volume of 50 μl. All reactions were carried out in EMSA buffer (10 mM Tris-HCl, pH 7.5, 1 mM dithiothreitol [DTT], 0.25 mM CaCl2, 0.5 mM MgCl2, 50 mM KCl, and 2% glycerol) containing excess of nonspecific DNA (salmon sperm DNA). After 15 min of incubation at room temperature, reaction mixtures were loaded onto a 1% (wt/vol) agarose gel. Bound and unbound probes were separated by gel electrophoresis for 30 min at 100 V at room temperature, and fluorescent DNA was visualized using a Typhoon Trio+ variable-mode imager (FRFC 2.4506.08).

Assay [2] relates to S. scabies 87-22 and ΔcebR. Nature of the assay: Thaxtomin production on ISP-4 plates with and without cellobiose supply (HPLC). Conditions: ISP-4 medium; wild-type or ΔcebR background; FIGS. 8A and 8B. It is filed as cell-based, Streptomyces scabies. The source says:
FIGS. 8A-B illustrate genetic complementation of the cebR mutant scored by thaxtomin production on ISP-4 plates. […] Although pigmentation is not visible in the black and white photos, FIG. 8B is a graphic illustration HPLC analysis of thaxtomin production on the ISP-4 plates from FIG. 8A. […] Thaxtomin production is reverted back to wild-type levels when the mutation is genetically complemented (cebR mutant transformed with pRLIF8 containing the cebR gene and its promoter region).
The production of thaxtomin by both strains grown on ISP-4 with and without cellobiose supply was compared. […] The further increase in toxin production by the mutant upon addition of cellobiose is most likely due to the function of cellobiose as ligand of the transcriptional activator TxtR, which drives the expression of the thaxtomin biosynthetic genes txtA and txtB (Joshi et al. 2007) (FIG. 5).
Mycelial suspensions of S. scabies strains were prepared from 48-72 h-old TSB-grown cultures by pelleting the mycelia, washing twice with sterile water, and resuspending in 1 ml sterile water to obtain an optical density at 600 nm (OD600 mn) of 1.0. […] Thaxtomin A was purified from the supernatant and analyzed by HPLC as described previously (Johnson et al. 2007). […]

For the compound `O=C[C@H](O)[C@@H](O)[C@H](O[C@@H]1O[C@H](CO)[C@@H](O)[C@H](O)[C@H]1O)[C@H](O)CO` [cellobiose], in assay [1], the “impairment of the CebR DNA-binding ability (quantification of shifted bands)” value (“impairment … (quantification of shifted bands)” below) was 56%. For the same compound, the “allosteric effector inhibiting CebR from binding to its DNA targets” value in assay [1] (compared with cellotriose to cellohexaose) is “best allosteric effector”. In assay [2], the “effect of addition on thaxtomin production” value is listed as “significant increase”.
For `OC[C@H]1O[C@@H](O[C@H]2[C@H](O)[C@@H](O)[C@H](O[C@H]3[C@H](O)[C@@H](O)[C@H](O[C@H]4[C@H](O)[C@@H](O)[C@H](O[C@H]5[C@H](O)[C@@H](O)[C@H](O[C@H]6[C@H](O)[C@@H](O)C(O)O[C@@H]6CO)O[C@@H]5CO)O[C@@H]4CO)O[C@@H]3CO)O[C@@H]2CO)[C@H](O)[C@@H](O)[C@@H]1O` (some centres unmarked) [cellohexaose], the “impairment … (quantification of shifted bands)” value in assay [1] is reported as 12%.
As to `OC[C@H]1O[C@@H](O[C@H]2[C@H](O)[C@@H](O)[C@H](O[C@H]3[C@H](O)[C@@H](O)C(O)O[C@@H]3CO)O[C@@H]2CO)[C@H](O)[C@@H](O)[C@@H]1O` (some centres unmarked) [cellotriose], in assay [1], the “impairment … (quantification of shifted bands)” value came out at 20%.
